Results from US8119624B2, “Fused phenyl amido heterocyclic compounds” (Pfizer Inc., priority 2006, dated 2012).
Where two headings read alike, the source gives them in different places.

Molecular target: T1, Full-length glucokinase (beta cell isoform) (Homo sapiens, UniProt P35557)
T1 construct: Full-length glucokinase (beta cell isoform) was His-tagged at N-terminus; His tag (N); made in house
T1 sequence (P35557 1-465): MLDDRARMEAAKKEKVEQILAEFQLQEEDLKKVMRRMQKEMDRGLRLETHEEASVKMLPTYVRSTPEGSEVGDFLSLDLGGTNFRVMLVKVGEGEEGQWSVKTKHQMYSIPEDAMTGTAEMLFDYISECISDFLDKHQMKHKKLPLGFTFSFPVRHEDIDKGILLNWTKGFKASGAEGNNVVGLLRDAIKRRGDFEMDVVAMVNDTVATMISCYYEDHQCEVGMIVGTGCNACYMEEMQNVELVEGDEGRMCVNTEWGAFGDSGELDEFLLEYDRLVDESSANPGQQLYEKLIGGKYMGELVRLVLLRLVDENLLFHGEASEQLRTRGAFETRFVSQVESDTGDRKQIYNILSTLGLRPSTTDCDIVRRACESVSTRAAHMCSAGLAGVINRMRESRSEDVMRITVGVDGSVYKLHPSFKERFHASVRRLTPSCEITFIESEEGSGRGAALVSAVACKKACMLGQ
Experiment: Glucokinase biochemical assay (PK/LDH-coupled, NADH depletion at 340 nm): % activation, EC50, % max activation
Settings: 5 mM glucose; for activation at 10 µM: read-out: % Activation at 10 uM; for EC50: GK activation, read-out: EC50; for Emax: fitted maximum activation, read-out: % Max Activation
Outline: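 N-terminally His-tagged full-length human beta-cell glucokinase, room temperature, 5 mM glucose, 1 mM ATP, PK/LDH-coupled with 0.7 mM NADH, 1% DMSO final. Initial velocity from the 200–900 s slope of A340 decline. % activation = (Va/Vo−1)×100, measured across compound concentrations.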

[1] = 10 uM compound, % Activation=(Va/Vo−1)×100

SMILES | activation at 10 µM [1] [%] | EC50 [nM] | Emax [%] | activation at 10 µM (compound at 10 uM, 1 mM ATP, room temperature) [%]
Cn1ccc(NC(=O)c2cc(Oc3ccc(C(=O)N4CCCC4)c(F)c3)c3c(c2)OC(C)(C)C3)n1 [Example 56, 4-[3-Fluoro-4-(pyrrolidine-1-carbonyl)-phenoxy]-2,2-dimethyl-2,3-dihydro-benzofuran-6-carboxylic acid(1-methyl-1H-pyrazol-3-yl)-amide] | 107 | 50.7 | 108 | –
Cn1ncc(NC(=O)c2cc(Oc3ccc(-c4ncon4)c(F)c3)c3c(c2)OC(C)(C)C3)n1 [Example 186, 4-(3-Fluoro-4-[1,2,4]oxadiazol-3-yl-phenoxy)-2,2-dimethyl-2,3-dihydro-benzofuran-6-carboxylic acid (2-methyl-2H-[1,2,3]triazol-4-yl)-amide] | 135 | 160 | 234 | –
Cn1ccc(NC(=O)c2cc(Oc3ccc(C(=O)N4CC(F)(F)C4)cc3F)c3c(c2)OC(C)(C)C3)n1 [Example 43, 4-[4-(3,3-Difluoro-azetidine-1-carbonyl)-2-fluoro-phenoxy]-2,2-dimethyl-2,3-dihydro-benzofuran-6-carboxylic acid(1-methyl-1H-pyrazol-3-yl)-amide] | 164 | 730 | 174 | –
Cc1ccc(NC(=O)c2cc(Oc3ccc(S(C)(=O)=O)cc3)c3c(c2)OC(C)(C)C3)nn1 [Example 21, 4-(4-Methanesulfonyl-phenoxy)-2,2-dimethyl-2,3-dihydro-benzofuran-6-carboxylic acid (6-methyl-pyridazin-3-yl)-amide] | 97.9 | 3900 | 127 | –
CCS(=O)(=O)c1ccc(Oc2cc(C(=O)Nc3ccc(C)cn3)cc3c2CC(C)(C)O3)cc1 [Example 126, 4-(4-Ethanesulfonyl-phenoxy)-2,2-dimethyl-2,3-dihydro-benzofuran-6-carboxylic acid (5-methyl-pyridin-2-yl)-amide] | 137 | 37 | 118 | –
Cn1ccc(NC(=O)c2cc(OCc3ccccc3)c3c(c2)C(=O)N(C2CC2)C3)n1 [Example 377, 7-(Benzyloxy)-2-cyclopropyl-N-(1-methyl-1H-pyrazol-3-yl)-3-oxoisoindoline-5-carboxamide] | – | – | – | 25.6
Cc1ccc(NC(=O)c2cc(Oc3ccc(C(F)F)cc3)c3cc(C(=O)N(C)C)oc3c2)nc1 [Example 323, 4-[4-(Difluoromethyl)phenoxy]-N^2,N^2-dimethyl-N^6-(5-methylpyridin-2-yl)-1-benzofuran-2,6-dicarboxamide] | 78 | 3700 | 83 | –
Cc1ccc(NC(=O)c2cc(Oc3ccc(C(=O)N(C)C)c(F)c3)c3c(c2)OC(C)(CO)C3)nc1 (stereo not shown) [Example 239, 4-(4-Dimethylcarbamoyl-3-fluoro-phenoxy)-2-hydroxymethyl-2-methyl-2,3-dihydro-benzofuran-6-carboxylic acid (5-methyl-pyridin-2-yl)-amide] | 32.1 | 20 | 42 | –
Cc1cc2c(Oc3ccc(S(C)(=O)=O)cn3)cc(C(=O)Nc3cnc(N(C)C)cn3)cc2o1 [Example 280, N[5-(Dimethylamino)pyrazin-2-yl]-2-methyl-4-{[5-(methylsulfonyl)pyridin-2-yl]oxy}-1-benzofuran-6-carboxamide] | 130 | 2400 | 148 | –
Cn1ccc(NC(=O)c2cc(Oc3cc(F)cc(F)c3)c3c(c2)OC(C)(C)C3)n1 [Example 113, 4-(3,5-Difluoro-phenoxy)-2,2-dimethyl-2,3-dihydro-benzofuran-6-carboxylic acid (1-methyl-1H-pyrazol-3-yl)-amide] | 239 | 2600 | 265 | –
Cc1ccc(NC(=O)c2cc(OC3CN(S(C)(=O)=O)C3)c3cc(C)oc3c2)nc1 [Example 326, 2-Methyl-N-(5-methylpyridin-2-yl)-4-{[1-(methylsulfonyl)-azetidin-3-yl]oxy}-1-benzofuran-6-carboxamide] | 76.9 | 2100 | 90 | –
